Key:
panel of 442 kinases [1] = target: T1, panel of 442 kinases (Homo sapiens, UniProt O15530); format: binding; details: Compound Concentration 10 µM
T1 construct: purchased KINOMEscan
T1 sequence (O15530 1-556): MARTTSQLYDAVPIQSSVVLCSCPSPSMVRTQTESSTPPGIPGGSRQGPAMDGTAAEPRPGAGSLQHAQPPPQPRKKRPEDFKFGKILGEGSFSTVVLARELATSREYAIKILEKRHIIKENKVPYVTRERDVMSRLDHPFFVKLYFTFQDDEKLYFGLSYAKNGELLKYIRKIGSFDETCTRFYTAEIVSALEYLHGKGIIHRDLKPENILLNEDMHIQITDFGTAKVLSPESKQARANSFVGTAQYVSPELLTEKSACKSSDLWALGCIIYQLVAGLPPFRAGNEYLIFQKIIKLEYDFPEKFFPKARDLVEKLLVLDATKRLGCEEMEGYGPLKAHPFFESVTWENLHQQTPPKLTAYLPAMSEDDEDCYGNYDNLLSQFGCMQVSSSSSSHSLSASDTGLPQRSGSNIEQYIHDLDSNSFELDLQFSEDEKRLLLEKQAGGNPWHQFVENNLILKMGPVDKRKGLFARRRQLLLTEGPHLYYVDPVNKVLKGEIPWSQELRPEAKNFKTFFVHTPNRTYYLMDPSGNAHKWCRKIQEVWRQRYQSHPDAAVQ
Description: (§1) We assessed the selectivity of members of this scaffold using the KINOMEscan methodology across a near comprehensive panel of 442 kinases [[18,27]].

panel of 442 kinases [2] = target: T2, panel of 442 kinases (Homo sapiens, UniProt P49137); format: binding; details: Compound Concentration 10 µM
T2 construct: purchased KINOMEscan
T2 sequence (P49137 whole entry): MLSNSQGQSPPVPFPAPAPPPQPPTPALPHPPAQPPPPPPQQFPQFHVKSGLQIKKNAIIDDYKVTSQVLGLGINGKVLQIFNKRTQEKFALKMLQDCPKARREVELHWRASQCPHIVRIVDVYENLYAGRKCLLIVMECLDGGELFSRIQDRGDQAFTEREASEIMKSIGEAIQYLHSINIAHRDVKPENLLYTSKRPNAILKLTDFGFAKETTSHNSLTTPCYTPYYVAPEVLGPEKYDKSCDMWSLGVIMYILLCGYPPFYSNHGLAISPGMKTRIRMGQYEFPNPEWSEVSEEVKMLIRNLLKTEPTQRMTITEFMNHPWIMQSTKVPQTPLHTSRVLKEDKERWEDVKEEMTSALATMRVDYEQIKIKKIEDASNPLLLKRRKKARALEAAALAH
Description: as §1

SMILES	KINOMEscan: PDPK1 (panel of 442 kinases [1])	KINOMEscan: MAPKAPK2 (panel of 442 kinases [2])
COc1cc(C(=O)N2CCC(N3CCN(C)CC3)CC2)ccc1Nc1ncc2c(n1)N(C1CCCC1)c1ccccc1C(=O)N2C [Compound 25, 11-cyclopentyl-2-((2-methoxy-4-(4-(4-methylpiperazin-1-yl)piperidine-1-carbonyl)phenyl)amino)-5-methyl-5H-benzo[e]pyrimido[5,4-b][1,4]diazepin-6(11H)-one]	98	100
CCOc1cc(C(=O)N2CCC(N3CCN(C)CC3)CC2)ccc1Nc1ncc2c(n1)N(C1CCCC1)c1ccccc1C(=O)N2C [Compound 26]	99	100
COc1cc(C(=O)N2CCC(N3CCN(C)CC3)CC2)ccc1Nc1ncc2c(n1)N(C)c1ccccc1C(=O)N2C [15 (LRRK2-IN-1)]	100	100

— publication PMC3914206
